“And” between values parts separate entries of the source, which are not always exact repeats. Equal values may be shown once.

This experiment has as its system adjuvant arthritis. The experiment is described as follows: Protection against adjuvant arthritis (AA): inhibition of joint inflammation. Type of experiment: in vivo, Lewis rats. The note with it: for % Inhibition of inflammation of adjuvant arthritis: 100 μl, subcutaneously once (14 days before or day 12 after induction of AA), day of maximal inflammation; for inflammation suppressed on day of peak disease: day 26.

Turning to `CCCCCCCCCCCCCCCCO` [Cetyl alcohol], for the setting “Lewis rats”, the “% Inhibition of inflammation of adjuvant arthritis” value (“% Inhibition” below) is 66%.
For `CCCCCCCC/C=C\CCCCCCCC(=O)OCC` [Ethyl oleate], the “% Inhibition” value (Lewis rats) turned out to be 92%.
As to `CCCCCCCC/C=C\CCCCCCCC(=O)OCC(O)CO` (stereo not shown) [Glycerol mono-oleate], under “Lewis rats”, the “% Inhibition” value turned out to be 98%.
As to `CCC=CCC=CC/C=C\CCCCCCCCO` [Linolenyl alcohol, cis-9,12,15-octadecatrienol], under “Lewis rats”, the “% Inhibition” value turned out to be 75%.
In the case of `CCCCCCCC/C=C\CCCCCCCC(=O)OC` [Methyl oleate], the “% Inhibition” value (Lewis rats) came to 76%.
In the case of `CCCCCCCC/C=C\CCCCCCCCO` [Oleyl alcohol, cis-9-octadecenol], the “inflammation suppressed on day of peak disease” value by setting is: (10 μl SC once 14 days before induction of AA) 14%; (50 μl SC once 14 days before induction of AA) 61%; (100 μl SC once 14 days before induction of AA) 78%; (500 μl SC once 14 days before induction of AA) 90%. Also, where the note is “Lewis rats”, the “% Inhibition” value is 78%-96%. Further, the “suppression of the inflammation” value (500 μl oleyl alcohol, two further experiments, Lewis rats) was 96% and 91%.
As for `CCCCCCCC/C=C\CCCCCCCC(=O)O` [oleic acid, cis-9-octadecenoic acid, reference compound], the “% Inhibition” value (Lewis rats) is “no effect”.
On the same count and under the same terms, for Mannose monooleate the value was 95%.
